Holding throughout (assay): biochemical
What all share (design): DiscoverX KINOMEscan scanMAX competition binding panel, single concentration, percent of control; remaining binding: dose or concentration left out as unconfirmed
Holding throughout (details): KINOMEscan binding, percent of control; read-out: Table S4_SCANMAX REPORT - related to Fig. 1 / Percent Control

Experiment [1] concerns the target RIOK2 (Homo sapiens, UniProt Q9BVS4).
Experiment [2] addresses FER (Homo sapiens, UniProt P16591).
The target in experiment [3] is TBK1 (Homo sapiens, UniProt Q9UHD2).
Chain of TBK1 (Q9UHD2 whole entry): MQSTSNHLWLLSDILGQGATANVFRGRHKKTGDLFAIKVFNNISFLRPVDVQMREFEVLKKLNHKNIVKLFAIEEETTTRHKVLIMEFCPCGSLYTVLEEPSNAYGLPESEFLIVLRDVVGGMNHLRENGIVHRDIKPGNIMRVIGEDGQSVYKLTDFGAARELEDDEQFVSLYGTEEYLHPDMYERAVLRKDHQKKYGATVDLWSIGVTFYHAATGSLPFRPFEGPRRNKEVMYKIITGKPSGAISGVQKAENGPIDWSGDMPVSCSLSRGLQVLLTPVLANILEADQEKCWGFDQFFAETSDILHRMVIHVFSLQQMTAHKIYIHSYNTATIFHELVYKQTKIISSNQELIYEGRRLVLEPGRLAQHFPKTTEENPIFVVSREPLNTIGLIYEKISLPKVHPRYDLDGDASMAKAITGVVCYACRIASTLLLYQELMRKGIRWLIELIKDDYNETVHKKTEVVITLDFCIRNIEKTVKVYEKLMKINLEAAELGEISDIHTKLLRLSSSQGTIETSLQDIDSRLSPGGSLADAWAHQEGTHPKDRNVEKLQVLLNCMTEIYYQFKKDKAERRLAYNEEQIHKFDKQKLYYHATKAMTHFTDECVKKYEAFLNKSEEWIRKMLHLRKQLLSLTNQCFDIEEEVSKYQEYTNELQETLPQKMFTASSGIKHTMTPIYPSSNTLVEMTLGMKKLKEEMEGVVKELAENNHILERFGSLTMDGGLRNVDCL
Experiment [4] deals with LRRK2 (Homo sapiens, UniProt Q5S007).
In experiment [5] the target is T1, MST1 (Homo sapiens, UniProt Q13043).
T1 construct: gene STK4

For experiment [6], the target named is BMPR1B (Homo sapiens, UniProt O00238).
Chain of BMPR1B (O00238 whole entry): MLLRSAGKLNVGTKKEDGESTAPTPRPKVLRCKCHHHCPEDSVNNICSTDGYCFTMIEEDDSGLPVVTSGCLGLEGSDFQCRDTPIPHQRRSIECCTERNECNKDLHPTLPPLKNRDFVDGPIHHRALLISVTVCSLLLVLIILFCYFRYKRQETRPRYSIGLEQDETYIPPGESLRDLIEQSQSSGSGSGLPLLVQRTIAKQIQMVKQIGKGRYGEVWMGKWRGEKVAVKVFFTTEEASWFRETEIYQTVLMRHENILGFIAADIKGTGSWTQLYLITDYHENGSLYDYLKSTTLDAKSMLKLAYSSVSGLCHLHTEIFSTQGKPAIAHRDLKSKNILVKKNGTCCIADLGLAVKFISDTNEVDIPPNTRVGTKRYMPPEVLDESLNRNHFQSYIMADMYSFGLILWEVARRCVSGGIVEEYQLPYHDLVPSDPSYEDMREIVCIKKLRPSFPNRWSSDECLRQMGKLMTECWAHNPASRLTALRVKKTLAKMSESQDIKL
For experiment [7], the target named is NEK3 (Homo sapiens, UniProt P51956).
Experiment [8] addresses PIK3CA(H1047Y) (Homo sapiens, UniProt P42336, H1047Y).
In experiment [9] the target is KIT-autoinhibited (Homo sapiens, UniProt P10721).
The target of experiment [10] is T2, BRK (Homo sapiens, UniProt Q13882).
T2 construct: gene PTK6
T2 sequence (Q13882 whole entry): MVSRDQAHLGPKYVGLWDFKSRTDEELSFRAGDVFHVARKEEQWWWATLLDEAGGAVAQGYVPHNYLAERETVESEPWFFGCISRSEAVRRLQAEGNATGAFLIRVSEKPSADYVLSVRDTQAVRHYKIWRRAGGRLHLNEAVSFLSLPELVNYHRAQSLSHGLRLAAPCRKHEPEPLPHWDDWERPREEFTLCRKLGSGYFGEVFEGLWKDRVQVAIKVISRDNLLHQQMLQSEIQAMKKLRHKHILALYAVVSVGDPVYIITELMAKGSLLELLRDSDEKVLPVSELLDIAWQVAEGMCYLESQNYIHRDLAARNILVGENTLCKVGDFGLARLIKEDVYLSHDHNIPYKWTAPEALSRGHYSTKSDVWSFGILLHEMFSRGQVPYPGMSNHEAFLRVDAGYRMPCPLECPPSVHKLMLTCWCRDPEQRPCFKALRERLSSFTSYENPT

The target of experiment [11] is MKNK2 (Homo sapiens, UniProt Q9HBH9).
Chain of MKNK2 (Q9HBH9 whole entry): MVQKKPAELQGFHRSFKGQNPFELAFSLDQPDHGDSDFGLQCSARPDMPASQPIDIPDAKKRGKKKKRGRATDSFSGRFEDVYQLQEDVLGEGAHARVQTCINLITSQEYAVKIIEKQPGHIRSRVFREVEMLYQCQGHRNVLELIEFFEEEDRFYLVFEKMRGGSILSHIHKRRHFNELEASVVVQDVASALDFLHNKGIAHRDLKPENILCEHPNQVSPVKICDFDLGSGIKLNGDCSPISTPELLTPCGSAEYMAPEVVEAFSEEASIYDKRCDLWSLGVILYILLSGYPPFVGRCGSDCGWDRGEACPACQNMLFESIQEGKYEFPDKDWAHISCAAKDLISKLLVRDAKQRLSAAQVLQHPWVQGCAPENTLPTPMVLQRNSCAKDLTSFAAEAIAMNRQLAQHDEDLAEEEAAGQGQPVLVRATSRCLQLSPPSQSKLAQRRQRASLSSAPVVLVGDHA
In experiment [12] the target is PIK3CA (Homo sapiens, UniProt P42336).
Experiment [13] addresses CDK2 (Homo sapiens, UniProt P24941).
Experiment [14] deals with CAMK2G (Homo sapiens, UniProt Q13555).
Experiment [15] addresses CAMK2B (Homo sapiens, UniProt Q13554).
Experiment [16] has as its target PIK3CA(E545K) (Homo sapiens, UniProt P42336, E545K).
For experiment [17], the target named is T3, MST2 (Homo sapiens, UniProt Q13188).
T3 construct: gene STK3
T3 sequence (Q13188 whole entry): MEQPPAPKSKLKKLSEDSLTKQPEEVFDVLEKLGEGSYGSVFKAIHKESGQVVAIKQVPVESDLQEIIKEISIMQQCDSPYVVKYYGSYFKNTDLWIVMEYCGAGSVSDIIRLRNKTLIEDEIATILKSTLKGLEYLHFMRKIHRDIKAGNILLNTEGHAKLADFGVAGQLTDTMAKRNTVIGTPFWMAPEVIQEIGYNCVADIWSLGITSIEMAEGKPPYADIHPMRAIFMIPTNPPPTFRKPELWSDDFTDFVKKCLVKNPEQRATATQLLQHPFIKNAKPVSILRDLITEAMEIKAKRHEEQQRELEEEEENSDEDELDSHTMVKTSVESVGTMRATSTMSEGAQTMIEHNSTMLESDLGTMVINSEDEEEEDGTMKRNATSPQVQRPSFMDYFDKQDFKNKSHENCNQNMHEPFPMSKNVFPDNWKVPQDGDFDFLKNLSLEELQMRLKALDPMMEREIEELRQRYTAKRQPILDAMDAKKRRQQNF

Experiment [18] deals with T4, MEK4 (Homo sapiens, UniProt P45985).
T4 construct: gene MAP2K4

Experiment [19] has as its target NEK10 (Homo sapiens, UniProt Q6ZWH5).

Chain of CAMK2B (Q13554 whole entry): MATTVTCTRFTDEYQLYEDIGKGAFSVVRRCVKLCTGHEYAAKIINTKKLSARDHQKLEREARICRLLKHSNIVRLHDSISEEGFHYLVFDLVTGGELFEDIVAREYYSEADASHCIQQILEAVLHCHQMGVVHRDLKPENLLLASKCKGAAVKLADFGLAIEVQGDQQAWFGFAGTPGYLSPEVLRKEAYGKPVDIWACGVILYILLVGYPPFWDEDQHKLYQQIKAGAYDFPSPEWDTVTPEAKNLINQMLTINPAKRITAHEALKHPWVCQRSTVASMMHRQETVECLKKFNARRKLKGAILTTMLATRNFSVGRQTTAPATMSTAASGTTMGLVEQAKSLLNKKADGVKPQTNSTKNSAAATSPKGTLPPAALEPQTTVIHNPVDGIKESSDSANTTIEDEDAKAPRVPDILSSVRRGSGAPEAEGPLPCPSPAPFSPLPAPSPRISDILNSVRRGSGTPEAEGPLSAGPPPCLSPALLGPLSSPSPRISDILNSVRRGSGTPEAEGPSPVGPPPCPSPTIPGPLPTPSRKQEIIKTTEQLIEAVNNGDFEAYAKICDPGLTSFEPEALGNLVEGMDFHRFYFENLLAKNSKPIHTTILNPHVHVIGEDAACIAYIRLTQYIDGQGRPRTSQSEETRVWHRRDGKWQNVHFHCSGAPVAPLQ
Chain of RIOK2 (Q9BVS4 whole entry): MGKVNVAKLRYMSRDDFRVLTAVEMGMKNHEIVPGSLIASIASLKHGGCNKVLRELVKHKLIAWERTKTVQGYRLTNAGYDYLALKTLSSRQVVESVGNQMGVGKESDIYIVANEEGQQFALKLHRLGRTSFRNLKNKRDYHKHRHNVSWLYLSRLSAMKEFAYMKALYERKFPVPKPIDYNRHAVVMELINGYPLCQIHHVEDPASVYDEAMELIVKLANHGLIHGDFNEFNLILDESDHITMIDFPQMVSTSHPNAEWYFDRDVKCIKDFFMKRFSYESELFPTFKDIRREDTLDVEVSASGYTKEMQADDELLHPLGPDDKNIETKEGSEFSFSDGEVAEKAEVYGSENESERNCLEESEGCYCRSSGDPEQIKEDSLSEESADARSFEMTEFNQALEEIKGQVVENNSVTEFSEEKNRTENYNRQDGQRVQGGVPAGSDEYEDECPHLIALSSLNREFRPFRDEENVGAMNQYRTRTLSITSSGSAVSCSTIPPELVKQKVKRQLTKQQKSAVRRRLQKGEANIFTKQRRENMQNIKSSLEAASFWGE
Chain of NEK10 (Q6ZWH5 whole entry): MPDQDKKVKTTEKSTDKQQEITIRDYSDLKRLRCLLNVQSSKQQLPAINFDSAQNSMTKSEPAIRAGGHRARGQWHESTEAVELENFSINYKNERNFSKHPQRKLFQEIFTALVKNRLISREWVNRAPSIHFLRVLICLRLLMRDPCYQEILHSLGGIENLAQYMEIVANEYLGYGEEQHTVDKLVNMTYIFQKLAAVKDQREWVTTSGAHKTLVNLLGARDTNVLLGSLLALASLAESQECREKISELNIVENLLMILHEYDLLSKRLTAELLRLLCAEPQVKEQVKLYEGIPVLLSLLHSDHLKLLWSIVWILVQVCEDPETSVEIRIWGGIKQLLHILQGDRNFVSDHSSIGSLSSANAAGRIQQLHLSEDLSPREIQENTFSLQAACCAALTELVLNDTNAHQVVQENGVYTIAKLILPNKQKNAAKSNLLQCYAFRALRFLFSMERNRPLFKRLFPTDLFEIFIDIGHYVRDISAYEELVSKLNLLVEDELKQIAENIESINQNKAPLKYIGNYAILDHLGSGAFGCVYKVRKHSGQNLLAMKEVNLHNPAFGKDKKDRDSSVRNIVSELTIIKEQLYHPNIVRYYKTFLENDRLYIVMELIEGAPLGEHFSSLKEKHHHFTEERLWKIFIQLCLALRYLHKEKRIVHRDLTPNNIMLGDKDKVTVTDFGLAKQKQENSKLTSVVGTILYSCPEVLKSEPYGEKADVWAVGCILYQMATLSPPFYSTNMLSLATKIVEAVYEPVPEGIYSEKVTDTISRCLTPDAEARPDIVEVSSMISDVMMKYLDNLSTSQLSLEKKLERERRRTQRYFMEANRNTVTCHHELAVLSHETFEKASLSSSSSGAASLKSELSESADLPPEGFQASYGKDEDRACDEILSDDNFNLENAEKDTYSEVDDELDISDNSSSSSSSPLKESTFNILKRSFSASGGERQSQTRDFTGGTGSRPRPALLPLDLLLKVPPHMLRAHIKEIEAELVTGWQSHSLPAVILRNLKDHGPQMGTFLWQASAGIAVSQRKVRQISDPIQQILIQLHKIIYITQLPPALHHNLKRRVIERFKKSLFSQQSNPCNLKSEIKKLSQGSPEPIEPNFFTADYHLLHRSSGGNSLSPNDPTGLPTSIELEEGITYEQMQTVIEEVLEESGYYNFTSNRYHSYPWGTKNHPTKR

For `c1ccc2c(c1)Sc1ccccc1N2CCN1CCOCC1` [J54], the remaining binding worked out at 100% in experiment [1]; 100% in experiment [2]; 89% in experiment [3]; 100% in [4]; 100% in experiment [5]; 93% in experiment [6]. Also, the remaining binding in experiment [7] came out at 75%; in experiment [8], 86%; in [9], 100%; in [10] it was 100%; in [11] it was 90%; in experiment [12] it was 94%. The remaining binding amounted to 92% in experiment [13]; 100% in [14]; 93% in [15]; 100% in [16]; 100% in experiment [17]; 100% in experiment [18]. In addition, in experiment [19], the remaining binding is 97%.
